How the values were obtained:
[1] = system: lymphocytes in peripheral blood; assay: In vivo evaluation of T-lymphocyte homing; details: CD2F1 mice, i.p., 6 h
Procedure: In vivo evaluation of T-lymphocyte homing. […] Six hours later, animals were sacrificed, and peripheral blood mononuclear cells were prepared as described. Dragun et al., Kidney Int 65, 1076-1083 (2004). Cells were stained with FITC-labeled rat anti-mouse CD3 molecular complex and PE-labeled rat anti-mouse CD45RA (4° C., in darkness, 30 min), and analyzed by flow cytometry.

[2] = system: Huh7 cells; assay: MTT cell viability assay, Huh7; type: cell-based; details: Homo sapiens, Huh-7, 24 h of treatment, MTT
Procedure: (§1) Cell lines, culture and reagents. The HCC cell lines Hep3B, PLC5 and Huh7, as well as primary nonmalignant human hepatocytes were used in this study. Cancer cells were cultured in Dulbecco's Modified Eagle's medium (DMEM) supplemented with 10% fetal bovine serum (FBS). Hepatocytes were maintained in defined Hepatocyte Culture Medium. […] Various polyclonal and monoclonal antibodies were used for western blotting, immunocytochemical, and flow cytometric analyses.
(§2) Cell viability assay. Cell viability was assessed by 3-(4,5-dimethylthiazol-2-yl)-2,5-diphenyl-2H-tetrazolium bromide (MTT) assays in six replicates. Cells were seeded (4,000 cells/well; 96-well plate) for 24 h and treated with test agents in 5% FBS-supplemented DMEM. After treatment, cells were incubated in medium containing 0.5 mg/ml MTT (37° C., 2 h). Reduced MTT was dissolved in DMSO (200 μL/well) and absorbances measured at 570 nm.

[3] = system: Hep3B cells; assay: MTT cell viability assay, Hep3B; type: cell-based; details: Homo sapiens, 24 h of treatment
Procedure: as §1, §2

[4] = system: PLC5 cells; assay: MTT cell viability assay, PLC5; type: cell-based; details: 24 h of treatment
Procedure: as §1, §2

[5] = system: normal human hepatocytes; assay: MTT cell viability assay, normal hepatocytes; type: cell-based; details: 24 h
Procedure: as §1, §2

[6] = system: orthotopic Hep3B-luc tumors; assay: Orthotopic Hep3B-luc xenograft tumor model; type: in vivo, athymic nude mice; set-up: dose or concentration left out as unconfirmed; details: end of treatment (42 days)
From the text: Orthotopic tumors were established by direct intrahepatic injection of luciferase-expressing Hep3B (Hep3B-luc) cells as described. Omar et al., Mol Pharmacol, 76, 957-968 (2009). The establishment and growth of tumors were monitored by bioluminescent imaging using the IVIS™ imaging system (Xenogen, Alameda, Calif.). […] All animal use described in this manuscript was done in accordance with protocols approved by The Ohio State University Institutional Animal Care and Use Committee.

[7] = Toxicity evaluation in tumor-bearing mice (body weight, blood counts, histopathology); type: in vivo, athymic nude mice; details: for mice with abdominal adhesions with varying amounts of peritonitis: of six mice per group examined histologically
Procedure: Xenograft tumor models. Ectopic tumors were established in athymic nude mice by subcutaneous injection of 1×10^6 Hep3B cells in a total volume of 0.1 ml of serum-free medium containing 50% Matrigel. Mice with established tumors were randomized to five groups (n=8) that received daily i.p. injections of OSU-2S or FTY720 at 5 or 10 mg/kg, or the vehicle. Tumor burdens were determined weekly using calipers (volume=width^2×length×0.52). Body weights were measured weekly. At the study endpoint, tumors were harvested, snap-frozen and stored at −80° C. for biomarker analysis. Blood and tissues were collected for evaluation of complete blood counts, serum chemistry and histopathology.
Orthotopic tumors were established by direct intrahepatic injection of luciferase-expressing Hep3B (Hep3B-luc) cells as described. Omar et al., Mol Pharmacol, 76, 957-968 (2009). The establishment and growth of tumors were monitored by bioluminescent imaging using the IVIS™ imaging system (Xenogen, Alameda, Calif.). Two weeks after tumor cell injection, animals with established tumors were randomized to three groups (n=3) that received daily i.p. injections of FTY720 or OSU-2S at 5 mg/kg, or vehicle for 42 days and were imaged weekly. All animal use described in this manuscript was done in accordance with protocols approved by The Ohio State University Institutional Animal Care and Use Committee.

[8] = target: T1, PP2A (Serine/Threonine Phosphatase 2A) (Homo sapiens, UniProt P67775); assay: PP2A functional enzymatic assay (malachite green) in primary CLL cells; type: cell-based; details: 24 hrs, OSU-2S 8 μM, untreated about 0.07
T1 construct: endogenous in cells; host or cells: primary CLL cells; Ramos cells
Procedure: The ability of OSU-2S to induce PP2A (Serine/Threonine Phosphatase 2A) activity in primary CLL cells was measured at 24 hrs by a functional enzymatic assay. Lysates made from OSU-2S 8 μM treated cells are used to immunoprecipitate PP2Ac which was then used as an enzyme to cleave the specific phosphor-peptide substrate in the functional assay. The cleaved free phosphates were measured by adding malachite green detection solutions and measuring the absorbance at A650 nm. Ramos cells were also included, and FTY720 was used as the control.

[9] = system: CLL cells; assay: Western blot analysis in CLL cells (PARP, caspase 3, caspase 9); type: cell-based
From the text: Western blot analysis as carried out to further observe the effects of OSU-2S in CLL cells. […] OSU-2S in CLL activates caspase, as evidenced by cleavage of poly (ADP-ribose) polymerase (PARP). Jurkat cell with or without UV irradiation were included as controls. […] OSU-2S was also shown to activate caspase 3 in CLL cells. […] Finally, OSU-2S activates caspase 9 in CLL.

[10] = system: SphK2 siRNA-transfected Huh7 cells; assay: Cell viability after siRNA-mediated knockdown of SphK2; type: cell-based; details: SphK2 siRNA vs scrambled
Procedure: as §2
Small interfering (si)RNA- or short hairpin (sh)RNA-mediated knockdown. PLC5 and Huh7 cells were transfected with the following siRNA duplexes or shRNA plasmids according to the manufacturer's protocol for the knockdown of target genes: siRNA: glutathione S-transferase (GST)-π and sphingosine kinase 2 (SphK2); shRNA constructs: pKD-PKCδ-v2. Stable clones were isolated from Huh7 cells transfected with shRNA plasmids were further subjected to stable clone isolation by geneticin. Immunoblotting was performed to confirm the knockdowns.

T1 sequence (P67775 whole entry): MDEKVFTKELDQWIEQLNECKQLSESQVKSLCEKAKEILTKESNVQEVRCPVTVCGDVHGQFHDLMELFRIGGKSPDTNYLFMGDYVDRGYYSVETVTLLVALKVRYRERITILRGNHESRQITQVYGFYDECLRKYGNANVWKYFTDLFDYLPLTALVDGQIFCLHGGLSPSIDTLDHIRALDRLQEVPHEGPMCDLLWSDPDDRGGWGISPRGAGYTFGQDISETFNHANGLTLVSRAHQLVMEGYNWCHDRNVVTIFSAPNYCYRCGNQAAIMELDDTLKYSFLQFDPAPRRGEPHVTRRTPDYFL

Question: With `CCC[C@@](N)(CO)CCc1ccc(OCCCCCC(C)C)cc1` [OSU-2S, (S)-2-amino-2-(4-[(6-methylheptyl)-oxy]phenethyl)pentan-1-ol] as the compound, how does the “effect on number of T lymphocytes in peripheral blood” value ([1]; 5 mg/kg) read?
Answer: The value was “modest decrease”.

Question: What about the “effect on number of T lymphocytes in peripheral blood” value ([1]; 1 and 2 mg/kg) of the same compound?
Answer: Its value is “no appreciable effect”.

Question: What about the “changes in circulating B lymphocytes” value [1] of the same compound?
Answer: The value was “no comparable changes”.

Question: And the IC50 [2]?
Answer: Its IC50 is 2400 nM.

Question: What about the IC50 [3] of the same compound?
Answer: The IC50 was 2400 nM.

Question: And the IC50 [4]?
Answer: Its IC50 is 3500 nM.

Question: And the “sensitivity of normal human hepatocytes relative to malignant cells” value [5]?
Answer: Its value is “resistant”.

Question: What about the “reduction in bioluminescent intensity” value [6] of the same compound?
Answer: Its value is 80%.

Question: And the “mice with abdominal adhesions with varying amounts of peritonitis” value ([7]; 5 mg/kg)?
Answer: The value was “all”.

Question: What about the “mice with abdominal adhesions with varying amounts of peritonitis” value ([7]; 10 mg/kg) of the same compound?
Answer: Its value is “all”.

Question: What about the lymphocyte levels ([7]; ectopic tumor-bearing mice at study endpoint) of the same compound?
Answer: The lymphocyte levels was “normal”.

Question: What about the “overt toxicity and body weight” value ([7]; ectopic tumor-bearing mice, daily i.p. 5 or 10 mg/kg) of the same compound?
Answer: The value was “no overt signs of toxicity and no loss of body weight”.

Question: What about the total lymphocyte counts ([7]; mice after 42 days of treatment) of the same compound?
Answer: The total lymphocyte counts was “no decrease”.

Question: And the “tolerability (stable body weights)” value ([7]; orthotopic tumor-bearing mice, daily i.p., 42 days)?
Answer: Its value is “well tolerated”.

Question: What about the “PP2A activity, absorbance at A650 nm” value [8] of the same compound?
Answer: The value was “about 0.20”.

Question: And the “caspase 3 activation” value ([9]; 24 and 48 hours, products at about 16-18 kD)?
Answer: The value was “caspase 3 cleaved products”.

Question: And the PARP cleavage ([9]; 24 and 48 hours, vs untreated)?
Answer: The PARP cleavage was “higher levels of PARP”.

Question: What about the “caspase 9 activation” value ([9]; products at about 30-34 kD) of the same compound?
Answer: Its value is “caspase 9 cleaved products”.

Question: What about the “effect of SphK2 knockdown on antiproliferative activity (sensitizing effect)” value [10] of the same compound?
Answer: The value was “not observed”.

Reference: patent US8309768B2, “FTY720-derived anticancer agents” (The Ohio State University Research Foundation, priority 2010, dated 2012)
